Each block holds one compound with its values, some of them ahead of it. The source made the active and inactive calls.
Legend:
[1] = test system: HeLa; assay: ATP-based viability loss in HeLa cells – cell-based, CellTiter-Glo luminescence, cherry-pick samples, cytotoxicity control for MITF activator project, dose response (AID 540259); assay type: functional; conditions: Homo sapiens
[2] = target: T1, Cysteine protease ATG4B (Homo sapiens, UniProt Q9Y4P1); assay type: functional;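 note: Fluorescence-based dose-response confirmation assay measuring inhibition of ATG4B activity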
T1 sequence (Q9Y4P1 whole entry): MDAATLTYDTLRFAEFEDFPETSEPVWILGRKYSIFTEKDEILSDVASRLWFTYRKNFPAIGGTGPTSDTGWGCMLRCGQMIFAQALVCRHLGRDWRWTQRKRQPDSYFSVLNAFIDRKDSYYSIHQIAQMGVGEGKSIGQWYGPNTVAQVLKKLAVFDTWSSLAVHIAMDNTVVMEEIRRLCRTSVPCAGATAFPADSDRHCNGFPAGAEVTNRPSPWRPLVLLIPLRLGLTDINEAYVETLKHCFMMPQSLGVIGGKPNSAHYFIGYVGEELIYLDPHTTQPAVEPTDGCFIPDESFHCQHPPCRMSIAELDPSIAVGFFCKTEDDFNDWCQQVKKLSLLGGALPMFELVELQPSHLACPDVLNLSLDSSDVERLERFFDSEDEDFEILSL

[3] = target: Phospholipase A2 (Homo sapiens, UniProt P04054); assay type: functional;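 note: confirmatory dose-response counterscreen on phospholipase A2, testing hits that came from an ultra-high-throughput screen for ATG4B inhibitors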
[4] = target: T2, High affinity choline transporter 1 (Homo sapiens, UniProt Q9GZV3); assay: human choline transporter blockers, potency – cell-based, 5-point CRC, membrane potential dye, dose response (AID 504840); assay type: functional
T2 sequence (Q9GZV3 whole entry): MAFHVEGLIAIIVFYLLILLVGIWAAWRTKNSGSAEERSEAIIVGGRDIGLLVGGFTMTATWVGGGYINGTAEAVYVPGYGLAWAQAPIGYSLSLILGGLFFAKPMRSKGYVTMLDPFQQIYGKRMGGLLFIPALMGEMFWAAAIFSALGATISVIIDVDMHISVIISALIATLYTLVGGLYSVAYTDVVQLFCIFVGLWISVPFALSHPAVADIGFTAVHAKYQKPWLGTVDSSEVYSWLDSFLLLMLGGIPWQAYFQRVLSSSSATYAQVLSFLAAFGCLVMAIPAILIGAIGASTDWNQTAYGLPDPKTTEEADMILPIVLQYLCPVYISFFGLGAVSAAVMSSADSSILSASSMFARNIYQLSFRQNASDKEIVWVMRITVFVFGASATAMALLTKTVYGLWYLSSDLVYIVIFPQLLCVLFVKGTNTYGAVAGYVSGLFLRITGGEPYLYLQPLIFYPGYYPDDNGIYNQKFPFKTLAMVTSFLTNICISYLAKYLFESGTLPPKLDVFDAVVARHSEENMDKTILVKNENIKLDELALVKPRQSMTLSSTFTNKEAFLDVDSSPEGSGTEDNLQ

[5] = target: Glucose-6-phosphate 1-dehydrogenase (Homo sapiens, UniProt P11413); assay: inhibition of Homo sapiens G6PD, dose series – biochemical, fluorescence, selectivity assay for P. falciparum G6PD inhibitor project, dose response (AID 504792); assay type: functional
[6] = NIH-3T3 fibroblast cytotoxicity, dose response, cytotoxicity control, cell-based, fluorescence, Alamar Blue, secondary assay (AID 2327); assay type: functional;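 note: NIH-3T3 mouse fibroblasts cultured with fluconazole at 8 µg/mL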
[7] = fluconazole-exposed Candida albicans growth modulators – fluorescence, retest, confirmation (AID 2467); assay type: functional, cell-based
[8] = test system: HEK293; assay: EBV LMP1 TES2 canonical NF-kB signalling blockers – cell-based, HEK293, luciferase, cherry-pick, dose response (AID 588343); assay type: functional; conditions: Homo sapiens
[9] = test system: INS1; assay: INS-1E survival protection against cytokine death – cell-based, luminescence, retest, dose response (AID 449756); assay type: functional; conditions: Rattus norvegicus;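 note: cell death triggered by IL-1 beta plus TNF-alpha plus IFN-gamma mixture; protective hits raise ATP signal compared with cytokine alone wells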
[10] = target: T3, SUMO-activating enzyme (Homo sapiens, UniProt Q9UBT2); assay: blockers of UBC9-mediated SUMO conjugation – biochemical, AlphaScreen, SUMOylation inhibitor project, confirmation (AID 2018); assay type: functional
[11] = target: T3, SUMO-activating enzyme; assay: blockers of SAE1/SAE2–UBC9 SUMO transfer – biochemical, HTRF, uHTS, primary screen (AID 2006); assay type: protein-complex assay
[12] = viability of PTEN-deleted HCT116 cells – cell-based, HCT116 PTEN knockout, dose response (AID 1047); assay type: functional;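 note: HCT116 colon tumor cells with PTEN knocked out; cells exposed to compound for 60 hours before readout; potency for loss of cell viability measured by luminescence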
[13] = target: T4, Calpain-2 catalytic subunit (Sus scrofa, UniProt P43367); assay: m-calpain protease blockers, concentration series – biochemical, fluorogenic peptide substrate, dose response (AID 1420); assay type: functional
T4 sequence (P43367 whole entry): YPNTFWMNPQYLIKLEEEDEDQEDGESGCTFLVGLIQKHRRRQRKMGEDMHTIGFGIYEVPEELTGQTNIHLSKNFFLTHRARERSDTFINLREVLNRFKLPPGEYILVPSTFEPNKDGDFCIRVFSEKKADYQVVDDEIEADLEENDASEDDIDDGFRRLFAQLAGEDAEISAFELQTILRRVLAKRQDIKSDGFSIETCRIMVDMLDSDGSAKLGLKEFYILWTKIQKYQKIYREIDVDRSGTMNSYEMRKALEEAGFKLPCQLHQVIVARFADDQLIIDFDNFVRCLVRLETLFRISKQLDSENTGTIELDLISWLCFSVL

[14] = viability of HCT116 lacking mutant beta-catenin – cell-based, human colon tumor, dose response (AID 1045); assay type: functional;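 note: HCT116 colon tumor cells with beta catenin knocked out; cells exposed to compound for 60 hours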
[15] = target: Cytochrome P450 2C19 (Homo sapiens, UniProt P33261); assay: Cytochrome panel assay with activity outcomes. Panel member name: p450-cyp2c19 Compounds with AC50 equal or less than 10 uM are considered active; assay type: functional; conditions: read-out: AC50
[16] = target: Cytochrome P450 2C9 (Homo sapiens, UniProt P11712)
[17] = target: T5, Leucine aminopeptidase (Plasmodium falciparum 3D7, UniProt Q8IL11); assay: P. falciparum M17LAP inhibitors, primary screen, biochemical, fluorogenic H-Leu-NHMec substrate, 1536-well (AID 1619); assay type: functional
T5 sequence (Q8IL11 whole entry): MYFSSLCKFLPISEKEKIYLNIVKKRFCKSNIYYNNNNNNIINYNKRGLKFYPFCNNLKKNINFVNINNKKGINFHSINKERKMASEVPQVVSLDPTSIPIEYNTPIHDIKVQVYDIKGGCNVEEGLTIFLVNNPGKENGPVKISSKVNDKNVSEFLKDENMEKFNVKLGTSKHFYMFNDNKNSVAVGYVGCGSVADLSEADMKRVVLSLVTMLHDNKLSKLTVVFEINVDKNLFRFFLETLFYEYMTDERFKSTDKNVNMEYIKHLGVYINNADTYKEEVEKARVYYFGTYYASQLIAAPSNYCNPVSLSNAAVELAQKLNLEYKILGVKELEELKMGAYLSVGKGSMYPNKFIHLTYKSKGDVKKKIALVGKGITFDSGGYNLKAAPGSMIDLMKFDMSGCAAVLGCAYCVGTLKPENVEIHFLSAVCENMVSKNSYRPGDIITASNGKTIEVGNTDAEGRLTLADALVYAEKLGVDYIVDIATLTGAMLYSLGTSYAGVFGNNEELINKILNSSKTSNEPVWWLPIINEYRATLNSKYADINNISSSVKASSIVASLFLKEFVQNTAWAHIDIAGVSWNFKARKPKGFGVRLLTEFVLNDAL

[18] = target: Dual specificity tyrosine-phosphorylation-regulated kinase 1A (Rattus norvegicus, UniProt Q63470); assay type: biochemical, Homo sapiens
[19] = test system: H9c2; assay: cells; assay type: functional, cell-based; conditions: Rattus norvegicus, H9c2, Myocardium;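 note: confirmatory concentration-response retest of ultra-high-throughput screening hits for modulation of myocardial damage; cell death induced by hydrogen peroxide oxidative stress; compound pretreatment for 60 min then peroxide exposure for 2 h; potency is for protecting the cells against peroxide damage rather than for killing them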
[20] = target: T6, Aurora kinase A (Homo sapiens, UniProt O14965); assay type: functional;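 note: value from the Navigating the Kinome kinase panel profiling, panel entry STK6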
T6 sequence (O14965 whole entry): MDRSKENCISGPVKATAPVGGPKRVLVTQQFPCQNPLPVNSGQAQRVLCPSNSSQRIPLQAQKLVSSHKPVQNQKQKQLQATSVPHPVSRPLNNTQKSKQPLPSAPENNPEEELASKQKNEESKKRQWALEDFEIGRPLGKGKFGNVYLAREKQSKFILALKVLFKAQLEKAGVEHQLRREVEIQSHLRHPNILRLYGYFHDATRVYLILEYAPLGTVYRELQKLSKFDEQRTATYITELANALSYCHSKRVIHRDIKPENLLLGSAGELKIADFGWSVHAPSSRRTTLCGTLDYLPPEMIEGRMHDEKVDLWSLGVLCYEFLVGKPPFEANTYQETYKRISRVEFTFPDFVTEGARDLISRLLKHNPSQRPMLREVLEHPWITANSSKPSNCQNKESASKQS

[21] = target: Vascular endothelial growth factor receptor 2 (Homo sapiens, UniProt P35968); assay type: functional
[22] = target: Aurora kinase B (Homo sapiens, UniProt Q96GD4); assay type: functional
[23] = intracellular Trypanosoma cruzi inhibitors in host cells – cell-based, plate reader, cherry-pick samples, set 3, dose response (AID 651818); assay type: functional;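 note: compounds incubated with infected cells for about four days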
[24] = Trypanosoma cruzi growth suppression in host cells – NIH3T3 host cells, beta-gal luminescence, confirmation (AID 2044); assay type: functional, cell-based;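 note: intracellular parasites grown in NIH/3T3 mouse fibroblasts as host cells; luminescent beta-galactosidase reporter signal from transgenic T. cruzi replicating inside host cells; inhibitors lower the luminescence signal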
[25] = NIH3T3 cell viability loss – ATP luminescence, mouse fibroblasts, counter-screen, dose response (AID 2010); assay type: functional, cell-based;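 note: cells exposed to compound for about 90 hours before reading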

Chain of Aurora kinase B (Q96GD4 whole entry): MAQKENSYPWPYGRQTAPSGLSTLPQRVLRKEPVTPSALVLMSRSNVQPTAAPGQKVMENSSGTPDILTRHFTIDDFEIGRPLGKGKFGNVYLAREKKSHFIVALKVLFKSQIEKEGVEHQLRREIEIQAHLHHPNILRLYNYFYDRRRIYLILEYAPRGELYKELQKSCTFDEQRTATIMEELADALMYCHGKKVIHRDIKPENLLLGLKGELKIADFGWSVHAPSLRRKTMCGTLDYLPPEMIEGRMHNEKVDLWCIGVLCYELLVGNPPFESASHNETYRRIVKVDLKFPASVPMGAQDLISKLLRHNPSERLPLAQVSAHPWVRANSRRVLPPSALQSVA
Chain of Glucose-6-phosphate 1-dehydrogenase (P11413 whole entry): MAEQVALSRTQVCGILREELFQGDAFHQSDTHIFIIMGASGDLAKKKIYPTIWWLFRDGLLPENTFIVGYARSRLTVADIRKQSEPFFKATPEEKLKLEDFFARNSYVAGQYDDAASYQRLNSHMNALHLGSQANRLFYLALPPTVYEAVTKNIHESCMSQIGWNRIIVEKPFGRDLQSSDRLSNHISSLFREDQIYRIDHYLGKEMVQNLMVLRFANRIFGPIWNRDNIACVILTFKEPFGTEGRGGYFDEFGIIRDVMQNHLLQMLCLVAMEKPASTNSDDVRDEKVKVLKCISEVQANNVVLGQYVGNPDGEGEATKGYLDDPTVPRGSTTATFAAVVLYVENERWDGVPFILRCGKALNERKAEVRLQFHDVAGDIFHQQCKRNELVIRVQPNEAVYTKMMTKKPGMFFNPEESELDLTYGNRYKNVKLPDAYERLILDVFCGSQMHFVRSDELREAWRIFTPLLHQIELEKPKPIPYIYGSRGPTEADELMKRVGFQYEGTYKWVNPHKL
Chain of Phospholipase A2 (P04054 whole entry): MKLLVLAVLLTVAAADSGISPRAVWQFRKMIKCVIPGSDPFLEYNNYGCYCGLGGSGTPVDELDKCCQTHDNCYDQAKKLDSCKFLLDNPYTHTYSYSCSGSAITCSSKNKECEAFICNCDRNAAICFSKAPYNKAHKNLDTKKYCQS
Chain of Vascular endothelial growth factor receptor 2 (P35968 whole entry): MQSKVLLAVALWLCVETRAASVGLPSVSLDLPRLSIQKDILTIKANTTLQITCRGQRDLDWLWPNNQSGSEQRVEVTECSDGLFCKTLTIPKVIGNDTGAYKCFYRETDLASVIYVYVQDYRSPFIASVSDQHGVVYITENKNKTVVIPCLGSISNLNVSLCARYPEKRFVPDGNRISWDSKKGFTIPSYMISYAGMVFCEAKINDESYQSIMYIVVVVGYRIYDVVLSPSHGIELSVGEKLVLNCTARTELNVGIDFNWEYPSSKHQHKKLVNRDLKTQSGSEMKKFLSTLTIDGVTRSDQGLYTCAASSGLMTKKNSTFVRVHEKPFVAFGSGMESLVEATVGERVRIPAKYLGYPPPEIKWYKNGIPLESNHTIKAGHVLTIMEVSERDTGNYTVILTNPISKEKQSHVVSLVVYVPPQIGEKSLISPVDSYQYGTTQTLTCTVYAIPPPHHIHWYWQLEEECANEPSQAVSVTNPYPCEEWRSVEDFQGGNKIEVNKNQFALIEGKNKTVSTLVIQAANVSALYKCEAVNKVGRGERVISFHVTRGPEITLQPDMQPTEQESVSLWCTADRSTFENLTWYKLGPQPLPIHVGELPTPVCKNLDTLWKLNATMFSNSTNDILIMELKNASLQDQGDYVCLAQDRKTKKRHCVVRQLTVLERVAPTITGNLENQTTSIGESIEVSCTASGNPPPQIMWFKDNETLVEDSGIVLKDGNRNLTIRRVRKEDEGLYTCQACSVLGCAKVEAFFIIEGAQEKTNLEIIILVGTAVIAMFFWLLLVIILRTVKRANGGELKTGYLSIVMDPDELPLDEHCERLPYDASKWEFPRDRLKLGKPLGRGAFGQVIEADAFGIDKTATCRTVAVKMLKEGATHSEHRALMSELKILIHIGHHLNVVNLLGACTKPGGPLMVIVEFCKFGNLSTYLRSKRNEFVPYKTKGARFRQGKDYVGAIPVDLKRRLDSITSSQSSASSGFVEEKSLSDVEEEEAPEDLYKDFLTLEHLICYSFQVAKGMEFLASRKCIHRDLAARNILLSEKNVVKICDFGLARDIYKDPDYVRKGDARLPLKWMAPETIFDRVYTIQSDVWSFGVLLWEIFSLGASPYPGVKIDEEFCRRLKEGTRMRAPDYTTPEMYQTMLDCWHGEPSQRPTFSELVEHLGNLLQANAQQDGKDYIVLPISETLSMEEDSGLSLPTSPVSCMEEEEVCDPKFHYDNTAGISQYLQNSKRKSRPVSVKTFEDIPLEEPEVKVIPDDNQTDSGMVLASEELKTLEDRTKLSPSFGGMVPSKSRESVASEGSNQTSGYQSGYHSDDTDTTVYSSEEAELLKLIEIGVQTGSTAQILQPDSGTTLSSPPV
T3 sequence (Q9UBE0 whole entry): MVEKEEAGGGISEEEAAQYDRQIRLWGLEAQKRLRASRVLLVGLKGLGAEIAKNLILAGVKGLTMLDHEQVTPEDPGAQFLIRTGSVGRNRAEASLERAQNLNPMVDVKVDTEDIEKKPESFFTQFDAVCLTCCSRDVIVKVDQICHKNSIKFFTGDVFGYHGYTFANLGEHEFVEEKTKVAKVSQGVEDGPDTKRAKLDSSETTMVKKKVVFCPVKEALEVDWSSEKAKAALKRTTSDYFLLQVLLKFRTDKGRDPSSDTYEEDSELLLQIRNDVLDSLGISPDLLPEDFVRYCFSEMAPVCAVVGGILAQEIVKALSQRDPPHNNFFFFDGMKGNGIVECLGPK
T3 sequence (Q9UBT2 whole entry): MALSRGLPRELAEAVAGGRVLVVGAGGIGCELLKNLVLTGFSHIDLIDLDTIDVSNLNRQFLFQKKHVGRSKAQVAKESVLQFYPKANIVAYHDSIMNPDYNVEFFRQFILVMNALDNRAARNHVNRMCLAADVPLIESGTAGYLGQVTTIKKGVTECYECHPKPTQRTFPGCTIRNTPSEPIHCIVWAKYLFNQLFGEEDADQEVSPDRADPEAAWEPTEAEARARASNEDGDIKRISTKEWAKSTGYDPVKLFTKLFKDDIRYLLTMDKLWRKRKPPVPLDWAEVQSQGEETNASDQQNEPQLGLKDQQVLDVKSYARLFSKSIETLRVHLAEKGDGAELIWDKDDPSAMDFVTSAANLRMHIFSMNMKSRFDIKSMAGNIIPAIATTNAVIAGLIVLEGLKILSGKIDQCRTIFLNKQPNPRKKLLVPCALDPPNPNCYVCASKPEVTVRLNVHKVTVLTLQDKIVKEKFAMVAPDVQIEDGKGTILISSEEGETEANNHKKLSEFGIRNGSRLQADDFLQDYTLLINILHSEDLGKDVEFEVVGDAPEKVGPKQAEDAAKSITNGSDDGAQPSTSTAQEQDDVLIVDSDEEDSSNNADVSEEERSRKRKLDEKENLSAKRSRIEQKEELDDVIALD
Chain of Cytochrome P450 2C19 (P33261 whole entry): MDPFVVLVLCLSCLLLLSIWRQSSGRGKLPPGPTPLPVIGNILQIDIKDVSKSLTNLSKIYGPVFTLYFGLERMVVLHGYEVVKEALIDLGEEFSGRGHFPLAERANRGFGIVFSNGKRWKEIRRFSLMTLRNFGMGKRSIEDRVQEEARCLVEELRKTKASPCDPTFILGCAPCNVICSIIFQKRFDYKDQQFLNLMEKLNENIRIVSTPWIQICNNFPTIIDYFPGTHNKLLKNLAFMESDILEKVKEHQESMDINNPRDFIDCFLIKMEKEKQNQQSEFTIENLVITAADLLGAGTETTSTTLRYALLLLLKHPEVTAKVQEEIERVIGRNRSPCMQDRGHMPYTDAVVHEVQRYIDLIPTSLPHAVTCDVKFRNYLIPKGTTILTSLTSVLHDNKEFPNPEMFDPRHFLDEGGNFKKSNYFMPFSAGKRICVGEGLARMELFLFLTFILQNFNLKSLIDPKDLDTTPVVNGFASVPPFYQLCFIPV
Chain of Cytochrome P450 2C9 (P11712 whole entry): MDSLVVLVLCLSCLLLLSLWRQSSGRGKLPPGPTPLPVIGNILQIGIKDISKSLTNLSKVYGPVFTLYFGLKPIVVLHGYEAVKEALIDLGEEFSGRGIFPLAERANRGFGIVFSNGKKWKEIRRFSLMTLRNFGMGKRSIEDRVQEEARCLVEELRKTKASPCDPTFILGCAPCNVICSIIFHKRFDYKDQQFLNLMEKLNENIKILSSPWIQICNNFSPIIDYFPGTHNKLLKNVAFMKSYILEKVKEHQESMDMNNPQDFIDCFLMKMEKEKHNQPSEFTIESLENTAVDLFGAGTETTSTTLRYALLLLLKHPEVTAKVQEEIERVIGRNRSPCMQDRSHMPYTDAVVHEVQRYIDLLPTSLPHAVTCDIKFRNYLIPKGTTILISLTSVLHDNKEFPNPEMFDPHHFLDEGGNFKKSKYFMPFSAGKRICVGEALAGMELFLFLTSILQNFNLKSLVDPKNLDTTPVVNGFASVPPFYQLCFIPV

SMILES: CC(=O)c1ccc(NC(=O)Nc2ccc3c(c2)nc(C)n3C)cc1
- AC50 [1]: 42.9 µM (active)

- IC50 [2]: 5.74 µM (active)
- IC50 [3]: 4.38 µM (active)
SMILES: CCCCCC(=O)Nc1ccccc1N1CCN(c2ccccc2)CC1

- IC50 [4]: 14.5 µM (active)
SMILES: COc1ccc2ncc(S(=O)(=O)c3ccccc3)c(N3CCC4(CC3)OCCO4)c2c1

- IC50 [5]: > 80 µM (inactive)
SMILES: O=C(Nc1nnc(C2CC2)s1)c1ccc(Cl)nc1

SMILES: CC(=O)c1ccc(N2CCN(c3ccnc4cc(Cl)ccc34)CC2)cc1
- EC50 [6]: > 160 µM (inactive)
- EC50 [7]: 4.05 µM (active)
- AC50 [8]: 54.4 µM (active)

SMILES: Cc1ccc(C(=O)Nc2ncc3c(Cl)cccc3n2)cc1
- AC50 [8]: 2.46 µM (active)

SMILES: CCC(=O)NC(c1cc(Cl)c2cccnc2c1O)C(C)C (stereo not given)
- AC50 [8]: 6.68 µM (active)
- AC50 [9]: 1.86 µM (active)

SMILES: Nn1c(CSc2nc3ccccc3o2)nnc1CSc1nc2ccccc2o1
- IC50 [5]: > 80 µM (inactive)

SMILES: COc1ccc(-n2c(CNc3ccc(C)cc3)nnc2SCC(=O)Nc2nc(-c3ccccc3)cs2)cc1
- IC50 [10]: 39.7 µM (active)
- IC50 [11]: 21.9 µM (active)
- EC50 [12]: 2.49 µM (active)
- IC50 [13]: 21.4 µM (active)
- EC50 [14]: 2.75 µM (active)
- AC50 [15]: 0.355 µM (inconclusive)
- AC50 [9]: 6.07 µM (active)
- AC50 [16]: 7.94 µM (inconclusive)

SMILES: CC(=O)c1ccc2c(c1)Cc1cc(C(C)=O)ccc1-2
- AC50 [1]: 96.8 µM (active)

- IC50 [17]: 10.4 µM (active)
- AC50 [18]: 3.12 µM (active)
SMILES: COc1ccc(N2Nc3[nH]nc(N)c3N2)cc1

- IC50 [4]: 20.9 µM (active)
SMILES: O=C(C1CCCN(c2ncnc3c2nc2n3CCCCC2)C1)N1CCN(c2ccc(F)cc2)CC1 (stereo not given)

SMILES: c1cc(-c2cc3cc4c(cc3cn2)OCO4)cs1
- AC50 [1]: 141 µM (active)

SMILES: CC(=O)c1ccc(N2CCN(C(=O)C3CCCN(c4ncnc5c4nc4n5CCCCC4)C3)CC2)cc1 (stereo not given)
- IC50 [4]: 18.2 µM (active)
- IC50 [19]: > 79 µM (inactive)

- Ki [20]: 0.794 µM (active)
- Ki [21]: > 5.01 µM (inactive)
- Ki [22]: 0.0501 µM (active)
SMILES: CCCCN1CCN(c2ccc(-c3nc4c(C(N)=O)cccc4[nH]3)cc2)CC1

- Ki [20]: 0.0501 µM (active)
- Ki [22]: 0.251 µM (active)
SMILES: COc1ccc(-c2cc(-c3ccccc3)c3cc(Cl)ccc3n2)cc1

- Ki [20]: 0.631 µM (active)
- Ki [21]: > 5.01 µM (inactive)
- Ki [22]: 0.0251 µM (active)
SMILES: NC(=NO)c1ccccc1S(=O)(=O)Nc1ccc2c(c1)C(=NO)c1ccccc1-2

SMILES: C[C@H]1CN([C@@H](C)CO)C(=O)c2cccc(NC(=O)c3ccncc3)c2O[C@@H]1CN(C)Cc1ccc2c(c1)OCO2
- AC50 [23]: 0.277 µM (active)

SMILES: Cc1ccc(S(=O)(=O)Nc2ccc3c(c2)CC(=O)N([C@H](C)CO)C[C@@H](C)[C@H](CN(C)Cc2ccc4c(c2)OCO4)O3)cc1
- AC50 [23]: 4.35 µM (active)

SMILES: C[C@@H]1CN([C@H](C)CO)C(=O)c2cccc(NC(=O)Nc3ccc(C(F)(F)F)cc3)c2O[C@@H]1CN(C)C(=O)NC1CCCCC1
- AC50 [23]: 5.14 µM (active)

- IC50 [5]: > 80 µM (inactive)
SMILES: NC(=O)N/N=C/c1ccc(-n2nncc2-c2ccc(Cl)cc2)cc1

- IC50 [2]: 8.08 µM (active)
- IC50 [3]: 33.5 µM (inactive)
SMILES: Oc1c(Br)cc(Br)cc1/C=N/n1c(S)nnc1-c1ccccc1

SMILES: C/C(Cn1nnc([N+](=O)[O-])n1)=N\NC(=O)c1cccc(Cl)c1
- EC50 [24]: 0.416 µM (active)
- EC50 [25]: > 60 µM (not active)
- IC50 [5]: > 80 µM (inactive)

- AC50 [18]: 10.5 µM (active)
SMILES: C[N+](C)(CCOc1ccccc1)Cc1ccccc1

Reference: ChEMBL document CHEMBL1201862, “PubChem BioAssay data set” (2004)
